2 molecules from US20260315468A1, “PHARMACEUTICAL COMPOSITION AND USE THEREOF” (SHANGHAI ALLIST PHARMACEUTICAL CO., LTD., priority 2022, published 2026) can be followed below.

Some results are limits rather than exact numbers.

One experiment concerns EGFR PACC mutant NSCLC. The experiment in a line: Clinical trial, open-label, multi-center, dose-escalation and dose expansion, preliminary tumor assessment. It is filed as in vivo, human. Conditions: for Maximum SLD % change from baseline: one patient. An excerpt: An open-label, multi-center, dose-escalation and dose expansion study was designed and carried out to evaluate the safety, pharmacokinetics (PK), and preliminary antitumor activity of furmonertinib in patients with advanced or metastatic non-small cell lung cancer (NSCLC) with activating (including uncommon) Epidermal Growth Factor Receptor (EGFR) or Human Epidermal Growth Factor Receptor 2 (HER2) mutations. The first stage of the trial involved a dose escalation trial segment to evaluate once-daily dosing of furmonertinib starting at 240 mg daily, with subsequent patient cohorts to be administered furmonertinib at a higher or lower dose, if necessary, followed by expansion cohorts in defined patient groups with furmonertinib administered at 240 mg (and 160 mg in the case of EGFR PACC mutant NSCLC) daily.
General enrollment criteria include: • 1) Histologically or cytologically documented, locally advanced or metastatic Non-Small Cell Lung Cancer (NSCLC) not amenable to curative surgery or radiotherapy; • 2) Disease that has progressed after at least one available standard therapy; or for whom standard therapy has proven to be ineffective or intolerable; or for whom a clinical trial of an investigational agent is a recognized standard of care; • 3) Documented radiologic disease progression during or after the last systemic anti-cancer therapy before the first dose of furmonertinib; • 4) For patients with Epidermal Growth Factor Receptor (EGFR) mutations sensitive to osimertinib, the patient must have received osimertinib prior to study enrollment in regions where osimertinib is approved, including the US.
Exclusion criteria include: • 1) Treatment with chemotherapy, targeted therapy, biologic therapy or an investigational agent as anti-cancer therapy within […] or 5 elimination half-lives prior to initiation of furmonertinib, whichever is shorter; • 2) Radiation therapy as cancer therapy within 4 weeks prior to initiation of furmonertinib; • 3) Palliative radiation to bone metastases within 2 weeks prior to initiation of furmonertinib; • 4) AE from prior anticancer therapy that have not resolved to Grade ≤1 except for alopecia or Grade ≤2 peripheral neuropathy.

For a further experiment, the system named is Ba/F3 EGFR-E709V. The experiment in a line: Anti-proliferation, CellTiter-Glo Luminescent Cell Viability Assay. It is filed as cell-based. To be noted: Mus musculus, BaF3, 72 h, 3 days. An excerpt: (§1) The objective of the test example 1 was to evaluate the anti-proliferation effect of Furmonertinib mesilate on 18 cell lines (Ba/F3 EGFR-G719S, Ba/F3 EGFR-S768I, Ba/F3 EGFR-G724S, Ba/F3 EGFR-L718Q, Ba/F3 EGFR-Del19/G724S, Ba/F3 EGFR-E709H, Ba/F3 EGFR-L747S, Ba/F3 EGFR-E709V, Ba/F3 EGFR-L747V, Ba/F3 EGFR-E709-710>D, Ba/F3 EGFR-E709A, Ba/F3 EGFR-Del19/C797S, Ba/F3 EGFR-L858R/C797S, Ba/F3 EGFR-L747S/G719A, Ba/F3-EGFR-L858R-L718V, Ba/F3-EGFR-L858R-L718Q, Ba/F3-EGFR-E709K-G719A, and Ba/F3 EGFR-L861Q) using standard CellTiter-Glo® Luminescent Cell Viability Assay. Further, AZD9291 was used as control compound.
(§2) Cell culture: Ba/F3 EGFR-G719S, Ba/F3 EGFR-S768I, Ba/F3 EGFR-G724S, Ba/F3 EGFR-L718Q, Ba/F3 EGFR-Del19/G724S, Ba/F3 EGFR-E709H, Ba/F3 EGFR-L747S, Ba/F3 EGFR-E709V, Ba/F3 EGFR-L747V, Ba/F3 EGFR-E709-710>D, Ba/F3 EGFR-E709A, Ba/F3 EGFR-Del19/C797S, Ba/F3 EGFR-L858R/C797S, Ba/F3 EGFR-L747S/G719A, Ba/F3-EGFR-L858R-L718V, Ba/F3-EGFR-L858R-L718Q, Ba/F3-EGFR-E709K-G719A, and Ba/F3 EGFR-L861Q engineered cells were obtained from Kyinno, and maintained at 37° C. with 5% CO2, in the RPMI1640 media supplemented with 10% fetal bovine serum.
(§3) The cells during the logarithmic growth period were harvested and counted by using blood counting chamber. The cell viability was over 90% which was determined by trypan blue assay. The cell concentration was adjusted with culture medium. 90 μl cell suspensions was added to two 96-well plates to obtain the final cell density of 3000 cells per well. The plates were incubated in humidified incubator at 37° C. with 5% CO2.
(§4) The solution of tested compounds (Furmonertinib mesilate and AZD9291) was diluted 1000-fold with DMSO. Then, said DMSO solution was diluted 100-fold with PBS (Phosphate Buffered Saline) to obtain 10× working solution. And 10× reference control solution was prepared by Phosphate Buffered Saline (PBS). 10 μl working solution (10×) was dispensed to each well (triplicate for each concentration). (The top concentration was 3160 nM, 3.16-fold dilution and 10 different concentrations. The final concentration of DMSO in culture medium was 0.1% [v/v]). The plate was cultured for 3 days.
(§5) On Day 3, CellTiter-Glo® reagent (a luciferase ATP bioluminescence detection reagent) was thawed, and then the cell plate was equilibrated at room temperature for approximately 30 minutes. 100 μl CellTiter-Glo® Reagent which was equal to the volume of cell culture medium present in each well was added. The obtained content was mixed for 5 minutes on an orbital shaker to induce cell lysis. The cell plate was incubated at room temperature for 20 minutes to stabilize luminescent signal. The luminescence was recorded by using Multi-mode Microplate Reader.
(§6) [formula] • blank control: medium control; • vehicle control: culture medium with 0.1% DMSO
(§7) The graphical curves were fitted using a nonlinear regression model with a sigmoidal dose response.

For another experiment, the system named is Ba/F3 EGFR-Del19/C797S. The experiment is described as above. Conditions: Mus musculus, BaF3, 72 h, 3 days. It is filed as cell-based.
Text: as §1, §2, §3, §4, §5, §6, §7

A further experiment relates to Ba/F3-EGFR-E709K-G719A. The description is as above. It is filed as cell-based. To be noted: 72 h, 3 days.
Text: as §1, §2, §3, §4, §5, §6, §7

For the next experiment, the system named is Ba/F3 EGFR-L747V. Described as above. The experiment is classed as cell-based. To be noted: Mus musculus, BaF3, 72 h, 3 days.
Text: as §1, §2, §3, §4, §5, §6, §7

A further experiment concerns Ba/F3 EGFR-E709A. The experiment is described as above. To be noted: Mus musculus, BaF3, 72 h, 3 days. It is filed as cell-based.
Text: as §1, §2, §3, §4, §5, §6, §7

A further experiment relates to Ba/F3 EGFR-G724S. Described as above. To be noted: Mus musculus, BaF3, 72 h, 3 days. The experiment is classed as cell-based.
Text: as §1, §2, §3, §4, §5, §6, §7

In a further experiment the test system is Ba/F3-EGFR-L858R-L718V. Described as above. It is filed as cell-based. To be noted: 72 h, 3 days.
Text: as §1, §2, §3, §4, §5, §6, §7

Another experiment concerns Ba/F3 EGFR-L718Q. The description is as above. The experiment is classed as cell-based. To be noted: Mus musculus, BaF3, 72 h, 3 days.
Text: as §1, §2, §3, §4, §5, §6, §7

A further experiment relates to Ba/F3 EGFR-E709-710 > D. Described as above. Conditions: Mus musculus, BaF3, 72 h, 3 days. It is filed as cell-based.
Text: as §1, §2, §3, §4, §5, §6, §7

The subject of a further experiment is Ba/F3 EGFR-Del19/G724S. Described as above. It is filed as cell-based. To be noted: Mus musculus, BaF3, 72 h, 3 days.
Text: as §1, §2, §3, §4, §5, §6, §7

For the next experiment, the system named is Ba/F3 EGFR-G719S. The experiment is described as above. To be noted: Mus musculus, BaF3, 72 h, 3 days. It is filed as cell-based.
Text: as §1, §2, §3, §4, §5, §6, §7

The test system of another experiment is Ba/F3-EGFR-L858R-L718Q. The description is as above. The experiment is classed as cell-based. To be noted: 72 h, 3 days.
Text: as §1, §2, §3, §4, §5, §6, §7

Another experiment concerns Ba/F3 EGFR-L858R/C797S. The description is as above. To be noted: Mus musculus, BaF3, 72 h, 3 days. The experiment is classed as cell-based.
Text: as §1, §2, §3, §4, §5, §6, §7

The next experiment has as its system Ba/F3 EGFR-L747S/G719A. The description is as above. It is filed as cell-based. To be noted: Mus musculus, BaF3, 72 h, 3 days.
Text: as §1, §2, §3, §4, §5, §6, §7

Another experiment deals with Ba/F3 EGFR-L861Q. The experiment is described as above. The experiment is classed as cell-based. To be noted: Mus musculus, BaF3, 72 h, 3 days.
Text: as §1, §2, §3, §4, §5, §6, §7

A further experiment deals with Ba/F3 EGFR-L747S. The description is as above. It is filed as cell-based. Conditions: Mus musculus, BaF3, 72 h, 3 days.
Text: as §1, §2, §3, §4, §5, §6, §7

The subject of a further experiment is Ba/F3 EGFR-S768I. The description is as above. The experiment is classed as cell-based. Conditions: Mus musculus, BaF3, 72 h, 3 days.
Text: as §1, §2, §3, §4, §5, §6, §7

The next experiment deals with Ba/F3 EGFR-E709H. The experiment is described as above. It is filed as cell-based. Conditions: Mus musculus, BaF3, 72 h, 3 days.
Text: as §1, §2, §3, §4, §5, §6, §7

In the case of `C=CC(=O)Nc1cc(Nc2nccc(-c3cn(C)c4ccccc34)n2)c(OCC(F)(F)F)nc1N(C)CCN(C)C` [furmonertinib, N-{2-{[2-(dimethylamino)ethyl](methyl)amino}-6-(2,2,2-trifluoroethoxy)-5-{[4-(1-methyl-1H-indol-3-yl)pyrimidin-2-yl]amino}pyridin-3-yl}acrylamide], the “Maximum SLD % change from baseline” value in the experiment with EGFR PACC mutant NSCLC (160 mg QD, EGFR mutation E709A + L858R, prior anti-tumor therapy: None) is reported as −40%; in the experiment on EGFR PACC mutant NSCLC (240 mg QD, EGFR mutation G719A, prior anti-tumor therapy: None), −23%; in the experiment on EGFR PACC mutant NSCLC (240 mg QD, EGFR mutation S768I + V769L, prior 1L: CARBOPLATIN + PEMETREXED + PEMBROLIZUMAB), −30%. The “tumor size and clinical activity” value in the experiment on EGFR PACC mutant NSCLC (240 mg QD and 160 mg QD, NSCLC patients with EGFR PACC mutation, no previous TKI treatment) was “a decrease in tumor size and clinical activity”.

With `C=CC(=O)Nc1cc(Nc2nccc(-c3cn(C)c4ccccc34)n2)c(OC)cc1N(C)CCN(C)C` [AZD9291, reference compound], the IC50 (commonly the concentration needed to halve the response being measured) with Ba/F3 EGFR-E709V turned out to be 47.6 nM; in the experiment on Ba/F3 EGFR-Del19/C797S, 1980 nM; in the experiment on Ba/F3-EGFR-E709K-G719A it was 164 nM; in the experiment on Ba/F3 EGFR-L747V, 53.7 nM; in the experiment on Ba/F3 EGFR-E709A, 64.2 nM; with Ba/F3 EGFR-G724S it was 73 nM. Further, the IC50 was 172 nM with Ba/F3-EGFR-L858R-L718V; over 1000 nM in the experiment on Ba/F3 EGFR-L718Q; 197 nM in the experiment with Ba/F3 EGFR-E709-710 > D; 16.3 nM in the experiment on Ba/F3 EGFR-Del19/G724S; 55.4 nM in the experiment on Ba/F3 EGFR-G719S; 942 nM in the experiment with Ba/F3-EGFR-L858R-L718Q. The IC50 was determined as 2190 nM in the experiment on Ba/F3 EGFR-L858R/C797S; 92.1 nM with Ba/F3 EGFR-L747S/G719A; 24.6 nM in the experiment on Ba/F3 EGFR-L861Q; 37.8 nM with Ba/F3 EGFR-L747S; 85.5 nM with Ba/F3 EGFR-S768I; 124 nM in the experiment on Ba/F3 EGFR-E709H.
